From US20120321637A1, “COMBINATION CANCER THERAPY WITH HERV INHIBITION” (The Board of Regents of the University of Texas System, priority 2011, published 2012)

Key:
[1] = tested on: A101D cell line; conditions: human, 48 h, 1000 µM
Description: The A101D cell line was treated with various combinations of PD98059 (P), 219476 (C), and AZT (A) for 48hrs after which the MTS assay was done.
CellTiter 96 Aqueous One Solution Cell Proliferation Assay (MTS, Promega) was used to measure total vial cells following manufacturer's instructions. 5,000 melanoma cells were seeded in each well of 96-well plates, and were grown for 24 hrs in media with 10% Fetal Bovine Serum (FBS). After that period, media were aspirated and various combinations of treatments were added to each well in media without serum. Based on dose-response analyses, the final concentrations used were: PD90895 at 25 μM; 219476 at 1 μM; AZT at 1000 μM. The plates were incubated for a period of 24 hrs, 48hrs, and 72 hrs, respectively. Then, the MTS solution was added to each well according to the manufacturers protocol. The plates were again incubated for 2-4 hrs, after which absorbance was measured at 490 nm. Data were analyzed and compared for treatment efficiency.

[2] = tested on: BRAF mutant metastatic melanomas; conditions: phase I clinical trial; cited from earlier work
[3] = tested on: melanoma; conditions: monotherapy; cited from earlier work

## Cc1cn([C@H]2C[C@H](N=[N+]=[N-])[C@@H](CO)O2)c(=O)[nH]c1=O [AZT]
[1]
  viability: 87.4%

## CCCS(=O)(=O)Nc1ccc(F)c(C(=O)c2c[nH]c3ncc(-c4ccc(Cl)cc4)cc23)c1F [PLX4032]
[2]
  BRAF mutant metastatic melanomas regressed in response to treatment: approximately 80%

## CNC(=O)c1cc(Oc2ccc(NC(=O)Nc3ccc(Cl)c(C(F)(F)F)c3)cc2)ccn1 [sorafenib, 4-[4-[[4-chloro-3-(trifluoromethyl)phenyl]carbamoylamino]phenoxy]-N-methyl-pyridine-2-carboxamide]
[3]
  clinical benefit in melanoma patients: only shows marginal clinical benefit
